The values below come from ChEMBL document CHEMBL4033770, “Importance of a 4-Alkyl Substituent for Activity in the Englerin Series” (2017).

Format in all cases: functional
The test system of one assay is ACHN. Put plainly: Growth inhibition of human ACHN cells incubated for 48 hrs by SRB assay.
The next assay concerns A498. In words: Growth inhibition of human A498 cells incubated for 48 hrs by SRB assay. The settings on record: A498, 48 h.
The next assay deals with UO-31. Put plainly: Growth inhibition of human UO31 cells incubated for 48 hrs by SRB assay. The following applies: UO-31, 48 h.
The next assay concerns Hs-578T. In words: Growth inhibition of human Hs 578T cells incubated for 48 hrs by SRB assay. Background: In SRB staining, fixed cells bind dye roughly in proportion to their protein.

For `CC(C)[C@]12C[C@@H](OC(=O)CO)[C@](C)(O1)[C@@H]1CCC[C@H]1[C@@H]2OC(=O)/C=C/c1ccccc1`, the GI50 (in general, the concentration at which growth is held to half of that of the control) in the assay with ACHN was 162 nM; in the assay on A498, 123 nM; with UO-31 it was 182 nM; in the assay on Hs-578T, 31 nM.
Take `CC(C)[C@@H]1CC[C@@H]2[C@@H]1[C@H](OC(=O)/C=C/c1ccccc1)[C@@]1(C(C)C)C[C@@H](OC(=O)CO)[C@]2(C)O1`: the GI50 is 8.3 nM in the assay on ACHN, 8.1 nM in the assay with A498, 11 nM in the assay with UO-31 and 3.2 nM with Hs-578T.
With `CC[C@@H]1CC[C@@H]2[C@@H]1[C@H](OC(=O)/C=C/c1ccccc1)[C@@]1(C(C)C)C[C@@H](OC(=O)CO)[C@]2(C)O1`, the GI50 with ACHN was determined as 13 nM; in the assay on A498, 38 nM; in the assay on UO-31, 19 nM; in the assay on Hs-578T, 4.1 nM.
